Values quoted from earlier work as cited in publication PMC5036423 (CPT: Pharmacometrics & Systems Pharmacology, 2016).

Key:
[1] = test system: intact PTH; details: first-in-human phase I study
[2] = 4 weeks of 5 mg TIW i.v. dosing, patients on HD

SMILES: CC(=O)N[C@H](CSSC[C@H](N)C(=O)O)C(=O)N[C@H](C)C(=O)N[C@H](CCCNC(=N)N)C(=O)N[C@H](CCCNC(=N)N)C(=O)N[C@H](CCCNC(=N)N)C(=O)N[C@H](C)C(=O)N[C@H](CCCNC(=N)N)C(N)=O [etelcalcetide]
- Accumulation in Cmax [2]: approximately twofold
- Accumulation in area under the curve over 48 hours [2]: threefold
- Plasma exposure (Cmax and area under the curve over 48 hours) versus dose (TIW i.v. administration in patients on HD): increased proportionally with the dose
- Fraction of the drug eliminated by TIW HD (patients receiving TIW hemodialysis): ~50%
- Effect on intact PTH in healthy subjects [1]: showed intact PTH lowering effect
